Measured values published in article PMC10480608 (Heliyon, 2023).

What was measured:
[1] = test system: MCF-7 (human breast adenocarcinoma); test: MTT cytotoxicity assay, MCF-7; assay type: cell-based; settings: Homo sapiens, MCF7, 72 h, read-out: IC50 ± SD, MCF7
[2] = test system: normal human dermal/fibroblasts; test: MTT cytotoxicity assay, normal fibroblasts; assay type: cell-based; settings: Homo sapiens, Fibroblast, 72 h, read-out: IC50 ± SD, Fibro dental
[3] = test system: HepG2 (hepatocellular carcinoma); test: MTT cytotoxicity assay, HepG2; assay type: cell-based, human; settings: Homo sapiens, HepG2, 72 h, read-out: IC50 ± SD, HEPG-2
[4] = test system: PC3 (human prostate carcinoma); test: MTT cytotoxicity assay, PC3; assay type: cell-based; settings: 72 h, read-out: IC50 ± SD, PC-3
[5] = test system: DU145 prostate cancer cells; test: MTT cytotoxicity assay, DU145; assay type: cell-based, human; settings: Homo sapiens, DU-145, read-out: IC50 ± SD, DU145
[6] = test system: MDA-231 breast cancer cells; test: MTT cytotoxicity assay, MDA-231; assay type: cell-based, human; settings: Homo sapiens, MDA-MB-231, read-out: IC50 ± SD, MDA-231

SMILES	IC50 [1] [µM]	IC50 [2] [µM]	IC50 [3] [µM]	IC50 [4] [µM]	IC50 [5] [µM]	IC50 [6] [µM]
Cc1nc([N+](=O)[O-])cn1Cc1ccccc1 [Compound 2, N1-benzyl-2-methyl-4-nitroimidazole]	68 ± 20					
Cc1nc([N+](=O)[O-])c(Br)n1Cc1ccccc1 [Compound 3, 5-bromo-N1-benzyl-2-methyl-4-nitroimidazole]		> 500	> 500	> 500		
C#CCN1CCN(c2c([N+](=O)[O-])nc(C)n2Cc2ccccc2)CC1 [Compound 5, 1-(N1-benzyl-2-methyl-4-nitro-imidazole-5-yl)-4-(prop-2-yn-1-yl)piperazine]	84 ± 2	> 500				
Cc1nc([N+](=O)[O-])c(N2CCN(Cc3cn(Cc4ccccc4)nn3)CC2)n1Cc1ccccc1 [Compound 9a, 1-((N1-benzyl-1H-1,2,3-triazol-4-yl)methyl)-4-(N1-benzyl-2-methyl-4-nitro-imidazole-5-yl)piperazine]	55 ± 40	> 500				
Cc1nc([N+](=O)[O-])c(N2CCN(Cc3cn(Cc4ccc(Br)cc4)nn3)CC2)n1Cc1ccccc1 [Compound 9b, 1-(N1-benzyl-2-methyl-4-nitro-imidazole-5-yl)-4-((N1-(4-bromobenzyl)-1H-1,2,3-triazol-4-yl)methyl)piperazine]	79 ± 21	> 500				
Cc1nc([N+](=O)[O-])c(N2CCN(Cc3cn(Cc4ccc(F)cc4)nn3)CC2)n1Cc1ccccc1 [Compound 9c, 1-(N1-benzyl-2-methyl-4-nitro-imidazole-5-yl)-4-((N1-(4-fluorobenzyl)-1H-1,2,3-triazol-4-yl)methyl)piperazine]	24 ± 1.9	> 500	> 500	> 500		
Cc1nc([N+](=O)[O-])c(N2CCN(Cc3cn(Cc4cccc([N+](=O)[O-])c4)nn3)CC2)n1Cc1ccccc1 [Compound 9d, 1-(N1-benzyl-2-methyl-4-nitro-imidazole-5-yl)-4-((N1-(3-nitrobenzyl)-1H-1,2,3-triazol-4-yl)methyl)piperazine]	40 ± 15					
Cc1cccc(Cn2cc(CN3CCN(c4c([N+](=O)[O-])nc(C)n4Cc4ccccc4)CC3)nn2)c1 [Compound 9e, 1-(N1-benzyl-2-methyl-4-nitro-imidazole-5-yl)-4-((N1-(3-methylbenzyl)-1H-1,2,3-triazol-4-yl)methyl)piperazine]	79 ± 21	> 500	> 500	> 500		
Cc1nc([N+](=O)[O-])c(N2CCN(Cc3cn(Cc4cccc(Br)c4)nn3)CC2)n1Cc1ccccc1 [Compound 9f, 1-(N1-benzyl-2-methyl-4-nitro-imidazole-5-yl)-4-((N1-(3-bromobenzyl)-1H-1,2,3-triazol-4-yl)methyl)piperazine]	53 ± 60					
Cc1nc([N+](=O)[O-])c(N2CCN(Cc3cn(Cc4ccccc4[N+](=O)[O-])nn3)CC2)n1Cc1ccccc1 [Compound 9h, 1-(N1-benzyl-2-methyl-4-nitro-imidazole-5-yl)-4-((N1-(2-nitrobenzyl)-1H-1,2,3-triazol-4-yl)methyl)piperazine]	48 ± 4	> 500				
Cc1nc([N+](=O)[O-])c(N2CCN(Cc3cn(Cc4ccccc4Br)nn3)CC2)n1Cc1ccccc1 [Compound 9i, 1-(N1-benzyl-2-methyl-4-nitro-imidazole-5-yl)-4-((N1-(2-bromobenzyl)-1H-1,2,3-triazol-4-yl)methyl)piperazine]	106 ± 12.3	> 500	> 500	> 500		
Cc1nc([N+](=O)[O-])c(N2CCN(Cc3cn(Cc4ccccc4F)nn3)CC2)n1Cc1ccccc1 [Compound 9j, 1-(N1-benzyl-2-methyl-4-nitro-imidazole-5-yl)-4-((N1-(2-fluorobenzyl)-1H-1,2,3-triazol-4-yl)methyl)piperazine]	151 ± 20	> 500	> 500	> 500		
Cc1nc([N+](=O)[O-])c(N2CCN(Cc3cn(CC(=O)c4ccccc4)nn3)CC2)n1Cc1ccccc1 [Compound 10a, 2-(4-((4-(1-benzyl-2-methyl-4-nitro-1H-imidazole-5-yl)piperazin-1-yl)methyl)-1H-1,2,3-triazol-1-yl)-1-phenylethanone]	112 ± 30				3.16 ± 0.03	1.15 ± 0.5
Cc1cccc(-n2cc(CN3CCN(c4c([N+](=O)[O-])nc(C)n4Cc4ccccc4)CC3)nn2)c1 [Compound 11 m, 1-(N1-benzyl-2-methyl-4-nitro-1H-imidazole-5-yl)-4-((N1-(m-tolyl)-1H-1,2,3-triazol-4-yl)methyl)piperazine]	161 ± 16	> 500	> 500	> 500		
Cc1nc([N+](=O)[O-])c(N2CCN(Cc3cn(-c4ccc(Br)cc4)nn3)CC2)n1Cc1ccccc1 [Compound 11a, 1-(N1-benzyl-2-methyl-4-nitro-1H-imidazole-5-yl)-4-((N1-(4-bromophenyl)-1H-1,2,3-triazol-4-yl)methyl)piperazine]		> 500	> 500	> 500		
CSc1ccccc1-n1cc(CN2CCN(c3c([N+](=O)[O-])nc(C)n3Cc3ccccc3)CC2)nn1 [Compound 11b, 1-(N1-benzyl-2-methyl-4-nitro-1H-imidazole-5-yl)-4-((N1-(2-(methylthio)phenyl)-1H-1,2,3-triazol-4-yl)methyl)piperazine]	136 ± 60					
CCOc1ccccc1-n1cc(CN2CCN(c3c([N+](=O)[O-])nc(C)n3Cc3ccccc3)CC2)nn1 [Compound 11c, 1-(N1-benzyl-2-methyl-4-nitro-1H-imidazole-5-yl)-4-((N1-(2-ethoxyphenyl)-1H-1,2,3-triazol-4-yl)methyl)piperazine]	399 ± 79					
Cc1nc([N+](=O)[O-])c(N2CCN(Cc3cn(-c4ccccc4)nn3)CC2)n1Cc1ccccc1 [Compound 11d, 1-(N1-benzyl-2-methyl-4-nitro-1H-imidazole-5-yl)-4-((N1-phenyl-1H-1,2,3-triazol-4-yl)methyl)piperazine]	312 ± 65					
Cc1ccc(-n2cc(CN3CCN(c4c([N+](=O)[O-])nc(C)n4Cc4ccccc4)CC3)nn2)cc1 [Compound 11e, 1-(N1-benzyl-2-methyl-4-nitro-1H-imidazole-5-yl)-4-((N1-(p-tolyl)-1H-1,2,3-triazol-4-yl)methyl)piperazine]	219 ± 12					
COc1ccc(-n2cc(CN3CCN(c4c([N+](=O)[O-])nc(C)n4Cc4ccccc4)CC3)nn2)cc1 [Compound 11f, 1-(N1-benzyl-2-methyl-4-nitro-1H-imidazole-5-yl)-4-((N1-(4-methoxyphenyl)-1H-1,2,3-triazol-4-yl)methyl)piperazine]	251 ± 71	> 500				
Cc1ccccc1-n1cc(CN2CCN(c3c([N+](=O)[O-])nc(C)n3Cc3ccccc3)CC2)nn1 [Compound 11g, 1-(N1-benzyl-2-methyl-4-nitro-1H-imidazole-5-yl)-4-((N1-(o-tolyl)-1H-1,2,3-triazol-4-yl)methyl)piperazine]	183 ± 10					
CCc1ccccc1-n1cc(CN2CCN(c3c([N+](=O)[O-])nc(C)n3Cc3ccccc3)CC2)nn1 [Compound 11h, 1-(N1-benzyl-2-methyl-4-nitro-1H-imidazole-5-yl)-4-((N1-(2-ethylphenyl)-1H-1,2,3-triazol-4-yl)methyl)piperazine]	88 ± 37					
Cc1nc([N+](=O)[O-])c(N2CCN(Cc3cn(-c4ccccc4[N+](=O)[O-])nn3)CC2)n1Cc1ccccc1 [Compound 11i, 1-(N1-benzyl-2-methyl-4-nitro-1H-imidazole-5-yl)-4-((N1-(2-nitrophenyl)-1H-1,2,3-triazol-4-yl)methyl)piperazine]	185 ± 33	> 500				
Cc1nc([N+](=O)[O-])c(N2CCN(Cc3cn(-c4ccc(Cl)cc4)nn3)CC2)n1Cc1ccccc1 [Compound 11j, 1-(N1-benzyl-2-methyl-4-nitro-1H-imidazole-5-yl)-4-((N1-(4-chlorophenyl)-1H-1,2,3-triazol-4-yl)methyl)piperazine]	279 ± 20	> 500	> 500	> 500		
Cc1nc([N+](=O)[O-])c(N2CCN(Cc3cn(-c4ccc([N+](=O)[O-])cc4)nn3)CC2)n1Cc1ccccc1 [Compound 11k, 1-(N1-benzyl-2-methyl-4-nitro-1H-imidazole-5-yl)-4-((N1-(4-nitrophenyl)-1H-1,2,3-triazol-4-yl)methyl)piperazine]	671 ± 140					
COc1cccc(-n2cc(CN3CCN(c4c([N+](=O)[O-])nc(C)n4Cc4ccccc4)CC3)nn2)c1 [Compound 11l, 1-(N1-benzyl-2-methyl-4-nitro-1H-imidazole-5-yl)-4-((N1-(3-methoxyphenyl)-1H-1,2,3-triazol-4-yl)methyl)piperazine]	198 ± 10					
Cc1nc([N+](=O)[O-])c(N2CCN(Cc3cn(-c4cccc(Cl)c4)nn3)CC2)n1Cc1ccccc1 [Compound 11n, 1-(N1-benzyl-2-methyl-4-nitro-1H-imidazole-5-yl)-4-((N1-(3-chlorophenyl)-1H-1,2,3-triazol-4-yl)methyl)piperazine]	155 ± 70	> 500				
Cc1nc([N+](=O)[O-])c(N2CCN(Cc3cn(-c4cccc5c4CCCC5)nn3)CC2)n1Cc1ccccc1 [Compound 11o, 1-(N1-benzyl-2-methyl-4-nitro-1H-imidazole-5-yl)-4-((N1-(5,6,7,8-tetrahydronaphthalen-1-yl)-1H-1,2,3-triazol-4-yl)methyl)piperazine]	131 ± 30	> 500		> 500		
Cc1nc([N+](=O)[O-])c(N2CCN(Cc3cn(-c4cccc5ccccc45)nn3)CC2)n1Cc1ccccc1 [Compound 11q, 1-(N1-benzyl-2-methyl-4-nitro-1H-imidazole-5-yl)-4-((N1-(naphthalen-1-yl)-1H-1,2,3-triazol-4-yl)methyl)piperazine]	270 ± 40					
